{"source": "patent US12454675B2", "about": "“Method of increasing protein yield in mammalian cells in serum-free culture medium” (AGENCY FOR SCIENCE, TECHNOLOGY AND RESEARCH, priority 2016, dated 2025)", "assay_type_in_all_cases": "cell-based, Chinese Hamster", "key": {"CHO-K1 cells [1]": {"tested_on": "CHO-K1 cells", "experiment": "CHO-K1 cells in PFCDM with increasing concentration of maltose", "conditions": "maltose-adapted CHO-K1, PFCDM, maltose 10 g/l to 40 g/l", "text": "CHO-K1 cells adapted to PFCDM with 10 g/L of maltose was cultivated in PFCDM with 10, 20, 30 and 40 g/L maltose in batch shake flask cultures. The cultures were monitored till culture viabilities were lower than 50%, to obtain their (A) Viable cell densities (lined marker) and culture viabilities (marker only), and (B) Osmolality, (C) Glucose, (D) Lactate, (E) Glutamine and (F) Ammonium profiles. […] Even with the higher maltose concentration, lactate concentration was kept at a low level till viability started to drop on Day 6.\nExamining glutamine consumption, while this was slower in the maltose culture compared to the glucose culture (FIG. 2D), it was likely due to the slower growth of the maltose culture. […] This hypothesis is supported by the ammonium production profiles: while the specific ammonium production rate was initially similar for both cultures, that for the glucose culture slowed considerably from Day 2 (FIG. 2G) to attain a final ammonium concentration of 0.14 g/l (FIG. 2E), whereas the specific ammonium production rate of the maltose culture continued at a similar rate till Day 5 to attain a higher final ammonium concentration of 0.20 g/1. […]"}, "CHO-K1 cells [2]": {"tested_on": "CHO-K1 cells", "experiment": "Shake flask batch growth and biochemical profiles of CHO-K1 in maltose or glucose medium", "experimental": "Viable cell density and culture viability were determined by Trypan blue dye exclusion method using Vi-Cell XR Cell Viability Analyzer (Beckman Coulter, Brea, CA) according to manufacturer's instructions. For biochemical and other cell culture parameter analyses, 1 ml of culture sample was centrifuged at 8000 g for 10 minutes to obtain clarified supernatant. Concentrations of ammonium, glutamine, glucose and lactate were analyzed by the BioProfile 100 Plus (Nova Biomedical, Waltham, MA). Osmolality was measured using a vapor pressure osmometer (Vapro 5520, Wescor, Logan, UT), according to manufacturer's instructions. Maltose concentration was quantified using Maltose Colorimetric/Fluorometric Assay Kit (Biovision, Milpitas, CA), according to manufacturer's instructions. […] Cells were cultivated in single-use Erlenmeyer flasks (Corning), with a cell seeding density of 0.3×10^6 cells/ml in duplicates. Cell culture samples were collected and analyzed daily throughout the duration of the growth profile experiment until culture viabilities fell below 50%. When necessary, culture supernatant samples were stored at -20° C. for further analysis. […]0)=μt Equation 1"}, "SH87 cells": {"tested_on": "SH87 cells", "experiment": "SH87 fed-batch bioreactor cultures in PFCDM", "experimental": "For each culture condition to be tested, SH87 was scaled up in PFCDM and inoculated into duplicate two (2) liter glass bioreactors (Sartorius, Germany) at a viable cell density of 3×10^5 cells/ml. Culture temperature, pH, dissolved oxygen and stir rate were maintained at 37° C., 7.1, 50% and 120 rpm respectively. The culture set points for glucose and glutamine were 0.5 g/l and 0.5 mM respectively, and predictive feeding was used to maintain these concentration levels by the addition of a concentrated DMEM-based protein-free feed and a 150 g/l glucose solution. Cell culture samples were collected and analyzed daily throughout the duration of the growth profile experiment until culture viabilities fell below 50%. When necessary, culture supernatant samples were stored at −20° C. for further analysis.\nSince fed-batch culture is a popular mode for the manufacturing of monoclonal antibodies, the use of maltose in fed-batch cultures was evaluated. […] As such, it was evaluated whether maltose can be used to supplement glucose in fed-batch cultures to drive the cells towards a slower but more efficient metabolism: Using a common glucose concentration setpoint of 0.5 g/l, SH87 in media supplemented with 4 g/l glucose and 20 g/l maltose was fed daily with 50% of its calculated glucose requirement, while cultures of the same cells in media containing 4 g/l glucose was fed daily with 100% of its calculated glucose requirement. Duplicate bioreactor cultures were performed for each condition and the growth, biochemical and IgG titer profiles of these cultures were plotted in FIG. 7.\nAdditionally, the present disclosure investigated whether maltose supplementation in the feed medium can have further effect on fed-batch cultures with maltose-supplemented base medium. Using a common glucose concentration setpoint of 0.5 g/l, SH87 in media supplemented with 4 g/l glucose and 20 g/l maltose was fed daily with 50% of its calculated glucose requirement, using a sugar feed consisting of only glucose, or of glucose and maltose in a 1:1 ratio."}, "[3]": {"tested_on": "SH87 (CHO-K1 cell line producing an anti-Her2 monoclonal antibody)", "experiment": "SH87 shake flask batch cultures in PFCDM with glucose and maltose", "conditions": "20 g/l maltose supplemented vs 14 g/l glucose and 10 g/l maltose supplemented cultures", "experimental": "Viable cell density and culture viability were determined by Trypan blue dye exclusion method using Vi-Cell XR Cell Viability Analyzer (Beckman Coulter, Brea, CA) according to manufacturer's instructions. For biochemical and other cell culture parameter analyses, 1 ml of culture sample was centrifuged at 8000 g for 10 minutes to obtain clarified supernatant. Concentrations of ammonium, glutamine, glucose and lactate were analyzed by the BioProfile 100 Plus (Nova Biomedical, Waltham, MA). Osmolality was measured using a vapor pressure osmometer (Vapro 5520, Wescor, Logan, UT), according to manufacturer's instructions. Maltose concentration was quantified using Maltose Colorimetric/Fluorometric Assay Kit (Biovision, Milpitas, CA), according to manufacturer's instructions. […] Cells were cultivated in single-use Erlenmeyer flasks (Corning), with a cell seeding density of 0.3×10^6 cells/ml in duplicates. Cell culture samples were collected and analyzed daily throughout the duration of the growth profile experiment until culture viabilities fell below 50%. When necessary, culture supernatant samples were stored at -20° C. for further analysis."}, "[4]": {"conditions": "CHO-K1 maltose culture, 3.6 g/l"}}}
{"smiles": "OC[C@H]1O[C@H](O[C@H]2[C@H](O)[C@@H](O)[C@H](O)O[C@@H]2CO)[C@H](O)[C@@H](O)[C@@H]1O", "note": "[maltose]", "values": [{"measurement": "proliferation with increased concentrations of maltose", "setting": "CHO-K1 cells [1]", "result": "proliferated faster"}, {"measurement": "culture viabilities maintained over a longer period of time compared to glucose", "setting": "CHO-K1 cells [2]; CHO-K1, 3.6 g/l sugar", "result": "greater than 80%"}, {"measurement": "day on which glutamine was completely utilized", "setting": "CHO-K1 cells [2]; CHO-K1, 3.6 g/l sugar", "result": 5, "unit": "days"}, {"measurement": "final ammonium concentration", "setting": "CHO-K1 cells [2]; CHO-K1, 3.6 g/l sugar", "result": 0.20, "unit": "g/L"}, {"measurement": "doubling time", "setting": "CHO-K1 cells [2]; CHO-K1, 3.6 g/l sugar, viable cell density data till Day 4", "result": 53.7, "unit": "h"}, {"measurement": "maximum viable cell density", "setting": "CHO-K1 cells [2]; CHO-K1, HyQ PF-CHO, 3.6 g/l sugar, initial 0.3×10^6 cells/ml, maltose Day 7, glucose Day 6", "result": "1.4×10^6 cells/ml"}, {"measurement": "glucose in the culture medium", "setting": "CHO-K1 cells [2]; [4]", "result": "not detectable"}, {"measurement": "lactate production", "setting": "CHO-K1 cells [2]; [4]", "result": "lack of lactate production"}, {"measurement": "effect of additional maltose in the feed medium on cell growth, viability, glutamine, osmolality and IgG titer profiles", "setting": "SH87 cells; base 4 g/l glucose + 20 g/l maltose, feed glucose and maltose 1:1 vs glucose only", "result": "no additional effect"}, {"measurement": "improvement in maximum IgG titers vs glucose-only fed-batch cultures", "setting": "SH87 cells; fed-batch bioreactor", "result": 23, "unit": "%"}, {"measurement": "improvement in specific IgG productivities vs glucose-only fed-batch cultures", "setting": "SH87 cells; fed-batch bioreactor", "result": 55, "unit": "%"}, {"measurement": "improvement in maximum IgG titer of batch culture", "setting": "[3]", "result": 15, "unit": "%"}]}
